# Test results as given in patent US10501493B2, “Broad spectrum antibiotics” (priority 2011, dated 2019).
# Experiments:
# [1] = system: S. aureus NCTC-8325 SpsB(P295); test: In vitro antimicrobial activity, MIC by broth micro-dilution; assay type: cell-based; settings: Staphylococcus aureus, NCTC8325, read-out: MIC class, S. aureus NCTC-8325 SpsB(P295)
# Protocol: (§1) In vitro antimicrobial activity of each compound was determined by measuring minimal inhibitor concentrations (MICs) using the broth micro-dilution technique as approved by the Clinical and Laboratory Standards Institute (CLSI). The microbiological panel examined contains a number of bacterial species including E. coli MG1655, P. aeruginosa, S. aureus, and S. epidermidis. In addition, the panel includes previously described pseudo-isogenic strains of these four species (P. A. Smith et al. Chem Biol 2010, 1223-1231), in which a specific proline residue in SPase (called LepB in Gram-negative organisms an SpsB in Gram-positive organisms) has been mutated to a different amino acid. The resulting strains have increased susceptibility to the arylomycin class of antibiotics. Analysis of the strains lacking this proline residue will increases the dynamic range of the assay, and comparison of the sensitivities of the isogenic pairs provides ongoing confirmation that the activity gained through derivatization is specific to the inhibition of SPase. Briefly, bacterial streaks were grown on Mueller Hinton Agar II (Difco™) with or without 5% lysed horse blood for a period of 24 hours at either 35° C. or 28° C. Bacterial colonies were suspended in cation adjusted Mueller Hinton broth and diluted to a final concentration of 1*10^7 colony forming units/ml. Two-fold serial dilutions of each compound were arrayed into 96-well plates (100 μl final volume per well) and 5 ul of the bacterial suspension will be added. […] MICs were periodically checked plating serial dilutions of MIC wells and quantitatively determining viable colonies.
# [2] = system: S. epidermidis RP62A; test: as above; assay type: cell-based; settings: Staphylococcus epidermidis, RP62A; read-out: MIC class, S. epidermidis RP62A
# Protocol: as §1
# [3] = system: E. coli ATCC 25922; test: as above; assay type: cell-based; settings: Escherichia coli, ATCC25922; read-out: MIC class, E. coli ATCC 25922
# Protocol: as §1
# [4] = system: S. pneumoniae D39; test: as above; assay type: cell-based; settings: Streptococcus pneumoniae, D39; read-out: MIC class, S. pneumoniae D39
# Protocol: as §1
# [5] = system: S. aurues NCTC-8325; test: as above; assay type: cell-based, S. aureus; settings: Staphylococcus aureus, NCTC8325, read-out: MIC class, S. aurues NCTC-8325
# Protocol: as §1
# [6] = molecular target: T1, S. aureus SPase (Staphylococcus aureus, UniProt P0A070); test: Enzymatic fluorogenic substrate cleavage assay for IC50; assay type: biochemical
# T1 construct: Full length His-tagged S. aureus SPase protein was expressed similarly; His-tag; made in house; host or cells: E. coli BL21(DE3)
# Protocol: (§2) Full length His-tagged E. coli SPase proteins were expressed in E. coli BL21(DE3) containing the plasmid pET23-lepB, P. A. Smith et al. Chem Biol 2010, 1223-1231. Briefly, saturated overnight cultures grown in 20 ml of Luria-Bertani medium supplemented with ampicillin were subcultures into 1.5 L of Luria-Bertani, and shaken at 37° C. until an optical density at 600 nm of 0.4-0.5 was achieved. Protein expression was induced with Isopropyl β-D-1-thiogalactopyranoside (ITPG) at a final concentration of […], and purified using nickel affinity chromatography. Full length His-tagged S. aureus SPase protein was expressed similarly from E. coli BL21(DE3) containing the plasmid pCDF1-SaSpsB or pCDF1-SaSpsB(P29S) and purified similarly to the E. coli protein with the following exceptions. SPase protein was solubilized using 300 mM NaCl, 20 mM Tris pH 8.06, 5 mM Imidazole, 10% glycerol, 1% Triton X-100, prior to purification in Ni-NTA Superflow resin and resin bound protein was washed in a similar buffer containing 1% Elugent in place of Triton X-100 prior to protein eluted in wash buffer supplemented with 300 mM imidazole. Protein purify was judged to exceed 95% by visual inspection of SDS-PAGE followed by Comassie staining. All protein concentrations were determined by BCA assay.
# (§3) In addition to the equilibrium binding assays, compound activity is also characterized by measuring inhibition of E. coli and S. aureus substrate cleavage reactions using fluorogenic peptides developed at RQx Pharmaceuticals. Briefly, two fluorogenic peptide substrates (decanoyl-LSSPA Y^NO2 A ? ADK^abzPD (SEQ ID NO: 1) and decanyol-LTPTAY^NO2 A ? ASKK^abzDD (SEQ ID NO: 2)) have been synthesized, where abz is the fluorescence donor 2-aminobenzamide, YNO2 is the fluorescence acceptor 3-nitrotyrosine, and the cleavage site is indicated with an arrow. These substrates are processed with a second order rate constant (Kcat/KM) of 10^5 M^−1s^−1 for E. coli and S. aureus SPase enzymes, and cleavage results in a greater than 10-fold increase in fluorescence signal (excitation at 314 nm, emission at 416 nm) as measured using a SpectraMax M2 fluorescence microplate reader. Two-folder serial dilutions of compound are prepared in cleavage reaction buffer consisting of: 50 mM Tris-HCl pH 8.0, 100 mM NaCl, 10% glycerol, 1 mM EDTA, detergent (1% NP-40 or 0.1% Elugent™ for E. coli LepB or S. aureus SpsB respectively) and either 2.5 nM of E. coli SPase enzyme or 10 nM of S. aureus SPase enzyme. 40 μl aliquots of the compound dilution series in the protein/buffer solution is transferred to black 384-well polypropylene plates, and 10 μl of fluorogenic peptide at a concentration of 100 μM is added to initiate the reaction. The increase in fluorescence, corresponding to substrate cleavage, is monitored continuously at room temperature for 30 minutes and initial reaction rates are calculated based in the linear increase in fluorescence from the initial 30 minutes of the reaction. Reaction rates are plotted as a function of compound concentration, and IC50 values are determined nonlinear regression analysis (SoftMax® Pro v5.4) of the sigmoidal dose-response curve.
# [7] = molecular target: T2, E. coli SPase (Escherichia coli, UniProt P00803); test: as above; assay type: biochemical
# T2 construct: Full length His-tagged E. coli SPase proteins were expressed in E. coli BL21(DE3); His-tag; made in house; host or cells: E. coli BL21(DE3)
# Protocol: as §2, §3
# [8] = system: E. col ATCC 25922 LepB(P84L); test: In vitro antimicrobial activity, MIC by broth micro-dilution; assay type: cell-based, E. coli; settings: Escherichia coli, ATCC25922, read-out: MIC class, E. col ATCC 25922 LepB(P84L)
# Protocol: as §1
Compound,MIC [1],MIC [2],MIC [3],MIC [4],MIC [5],IC50 [6],IC50 [7],MIC [8]
CCCCCCCCCCCCCCCC(=O)N(C)[C@H](CO)C(=O)N[C@H](C)C(=O)NCC(=O)N(C)[C@@H]1C(=O)N[C@@H](C)C(=O)N[C@H](C(=O)NCCOC)Cc2ccc(O)c(c2)-c2cc1ccc2O [Compound 61],> 64 µg/mL,> 64 µg/mL,> 64 µg/mL,< 8 µg/mL,> 64 µg/mL,> 10 µM,1 to 10 µM,16 to 64 µg/mL
CCCCCCCCCCCCCCCC(=O)N(C)C(CO)C(=O)N[C@H](C)C(=O)NCC(=O)N(C)[C@@H]1C(=O)N[C@@H](C)C(=O)NC(C(=O)NCC(O)CO)Cc2ccc(O)c(c2)-c2cc1ccc2O (stereo partly shown) [Compound 62],> 64 µg/mL,> 64 µg/mL,> 64 µg/mL,16 to 64 µg/mL,> 64 µg/mL,> 10 µM,1 to 10 µM,16 to 64 µg/mL
CCCCCCCCCCCCCCCC(=O)N(C)[C@H](CO)C(=O)N[C@H](C)C(=O)NCC(=O)N(C)[C@@H]1C(=O)N[C@@H](C)C(=O)N[C@H](C(=O)N[C@H](C)CO)Cc2ccc(O)c(c2)-c2cc1ccc2O [Compound 63],> 64 µg/mL,16 to 64 µg/mL,> 64 µg/mL,16 to 64 µg/mL,> 64 µg/mL,> 10 µM,> 10 µM,> 64 µg/mL
CCCCCCCCCCCCCCCC(=O)N(C)[C@H](CO)C(=O)N[C@H](C)C(=O)NCC(=O)N(C)[C@@H]1C(=O)N[C@@H](C)C(=O)N[C@H](C(=O)NC[C@H](C)O)Cc2ccc(O)c(c2)-c2cc1ccc2O [Compound 64],> 64 µg/mL,< 8 µg/mL,> 64 µg/mL,< 8 µg/mL,> 64 µg/mL,> 10 µM,1 to 10 µM,16 to 64 µg/mL
CCCCCCCCCCCCCCCC(=O)N(C)[C@H](CO)C(=O)N[C@H](C)C(=O)NCC(=O)N(C)[C@@H]1C(=O)N[C@@H](C)C(=O)N[C@H](C(=O)NC[C@@H](C)O)Cc2ccc(O)c(c2)-c2cc1ccc2O [Compound 65],> 64 µg/mL,< 8 µg/mL,> 64 µg/mL,16 to 64 µg/mL,> 64 µg/mL,1 to 10 µM,< 1 µM,16 to 64 µg/mL
CCCCCCCCCCCCCCCC(=O)N(C)[C@H](CO)C(=O)N[C@H](C)C(=O)NCC(=O)N(C)[C@@H]1C(=O)N[C@@H](C)C(=O)N[C@H](C(=O)N[C@@H](CO)C(C)C)Cc2ccc(O)c(c2)-c2cc1ccc2O [Compound 66],> 64 µg/mL,16 to 64 µg/mL,> 64 µg/mL,16 to 64 µg/mL,> 64 µg/mL,> 10 µM,1 to 10 µM,16 to 64 µg/mL
CCCCCCCCCCCCCCCC(=O)N(C)[C@H](CO)C(=O)N[C@H](C)C(=O)NCC(=O)N(C)[C@@H]1C(=O)N[C@@H](C)C(=O)N[C@H](C(=O)NC(CO)CO)Cc2ccc(O)c(c2)-c2cc1ccc2O [Compound 67],> 64 µg/mL,16 to 64 µg/mL,> 64 µg/mL,16 to 64 µg/mL,> 64 µg/mL,> 10 µM,> 10 µM,16 to 64 µg/mL
CCCCCCCCCCCCCCCC(=O)N(C)[C@H](CO)C(=O)N[C@H](C)C(=O)NCC(=O)N(C)[C@@H]1C(=O)N[C@@H](C)C(=O)N[C@H](C(=O)N[C@H](CO)C(C)O)Cc2ccc(O)c(c2)-c2cc1ccc2O (stereo partly shown) [Compound 68],> 64 µg/mL,16 to 64 µg/mL,> 64 µg/mL,16 to 64 µg/mL,> 64 µg/mL,> 10 µM,1 to 10 µM,16 to 64 µg/mL
CCCCCCCCCCCCCCCC(=O)N(C)[C@H](CO)C(=O)N[C@H](C)C(=O)NCC(=O)N(C)[C@@H]1C(=O)N[C@@H](C)C(=O)N[C@H](C(=O)N[C@H](CO)CCC)Cc2ccc(O)c(c2)-c2cc1ccc2O [Compound 69],> 64 µg/mL,16 to 64 µg/mL,> 64 µg/mL,16 to 64 µg/mL,> 64 µg/mL,> 10 µM,1 to 10 µM,< 8 µg/mL
CCCCCCCCCCCCCCCC(=O)N(C)[C@H](CO)C(=O)N[C@H](C)C(=O)NCC(=O)N(C)[C@@H]1C(=O)N[C@@H](C)C(=O)N[C@H](C(=O)NC(CO)(CO)CO)Cc2ccc(O)c(c2)-c2cc1ccc2O [Compound 70],> 64 µg/mL,< 8 µg/mL,> 64 µg/mL,16 to 64 µg/mL,> 64 µg/mL,> 10 µM,< 1 µM,< 8 µg/mL
CCCCCCCCCCCCCCCC(=O)N(C)[C@H](CO)C(=O)N[C@H](C)C(=O)NCC(=O)N(C)[C@@H]1C(=O)N[C@@H](C)C(=O)N[C@H](C(=O)N[C@H](CO)Cc2cnc[nH]2)Cc2ccc(O)c(c2)-c2cc1ccc2O [Compound 71],> 64 µg/mL,> 64 µg/mL,> 64 µg/mL,16 to 64 µg/mL,> 64 µg/mL,> 10 µM,> 10 µM,> 64 µg/mL
CCCCCCCCCCCCCCNC(=O)N(C)[C@H](CO)C(=O)N[C@H](C)C(=O)NCC(=O)N(C)[C@@H]1C(=O)N[C@@H](C)C(=O)N[C@H](C(=O)O)Cc2ccc(O)c(c2)-c2cc1ccc2O [Compound 72],16 to 64 µg/mL,< 8 µg/mL,> 64 µg/mL,16 to 64 µg/mL,> 64 µg/mL,< 1 µM,< 1 µM,< 8 µg/mL
CCCCCCCCCCCCCCCC(=O)N(C)[C@H](CO)C(=O)N[C@H](C)C(=O)NCC(=O)N(C)[C@@H]1C(=O)N[C@@H](C)C(=O)N[C@H](C(=O)N[C@H](CO)Cc2c[nH]c3ccccc23)Cc2ccc(O)c(c2)-c2cc1ccc2O [Compound 74],> 64 µg/mL,> 64 µg/mL,> 64 µg/mL,16 to 64 µg/mL,> 64 µg/mL,> 10 µM,1 to 10 µM,> 64 µg/mL
CCCCCCCCCCCCCCCC(=O)N(C)[C@H](CO)C(=O)N[C@H](C)C(=O)NCC(=O)N(C)[C@@H]1C(=O)N[C@@H](C)C(=O)N[C@H](C(=O)NCC(O)C(=O)OC)Cc2ccc(O)c(c2)-c2cc1ccc2O (stereo partly shown) [Compound 75],> 64 µg/mL,< 8 µg/mL,> 64 µg/mL,< 8 µg/mL,> 64 µg/mL,> 10 µM,< 1 µM,< 8 µg/mL
